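How tested: cells in 96-well plates exposed to compound for 48 hours at five concentrations. Here, GI50 denotes the concentration required for 50% inhibition of growth.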 Activity calls are given as the source filed them. Cut-off read from the data, not from the text of the source: active = GI50 up to about 1.1 µM and inactive = higher.
How the values were obtained:
Assay in all cases: inhibition of tumour cell growth, NCI panel, 48 h
BT-549 = system: BT-549
HCT-116 = system: HCT-116
IGROV-1 = system: IGROV-1
M14 = system: M14
MDA-MB-231 = system: MDA-MB-231
MDA-N = system: MDA-N
Malme-3M = system: Malme-3M
NCI-H23 = system: NCI-H23
NCI-H522 = system: NCI-H522
NCI/ADR-RES = system: NCI/ADR-RES
OVCAR-3 = system: OVCAR-3
OVCAR-5 = system: OVCAR-5
PC-3 = system: PC-3
RPMI-8226 = system: RPMI-8226
RXF 393 = system: RXF 393
SN12C = system: SN12C
SR = system: SR
T47D = system: T47D
U-251 = system: U-251
SK-MEL-28 = system: SK-MEL-28

SMILES | GI50 (BT-549) | GI50 (HCT-116) | GI50 (IGROV-1) | GI50 (M14) | GI50 (MDA-MB-231) | GI50 (MDA-N) | GI50 (Malme-3M) | GI50 (NCI-H23) | GI50 (NCI-H522) | GI50 (NCI/ADR-RES) | GI50 (OVCAR-3) | GI50 (OVCAR-5) | GI50 (PC-3) | GI50 (RPMI-8226) | GI50 (RXF 393) | GI50 (SN12C) | GI50 (SR) | GI50 (T47D) | GI50 (U-251) | GI50 (SK-MEL-28)
Cc1c2c(c(C)n1-c1ccccc1)C(=O)N(CCCCN1CCN(c3ccccc3)CC1)C2=O | 16.9 µM (inactive) | 7.71 µM (inactive) | 15.1 µM (inactive) | 9.53 µM (inactive) | 10 µM (inactive) | 9.57 µM (inactive) | 4.03 µM (inactive) | 6.73 µM (inactive) | 12.9 µM (inactive) | 17 µM (inactive) | 8.95 µM (inactive) | 49.3 µM (inactive) | 6.82 µM (inactive) | 7.52 µM (inactive) | 14.5 µM (inactive) | 13.1 µM (inactive) | 8.85 µM (inactive) | 3.49 µM (inactive) | 14.5 µM (inactive) | 
Cc1csc2c1-n1cccc1C2=O | > 100 µM (inactive) | > 100 µM (inactive) | > 100 µM (inactive) | > 100 µM (inactive) | > 100 µM (inactive) | 99.1 µM (inactive) | > 100 µM (inactive) |  | > 100 µM (inactive) | > 100 µM (inactive) | > 100 µM (inactive) | > 100 µM (inactive) | > 100 µM (inactive) | > 100 µM (inactive) | 98.4 µM (inactive) | > 100 µM (inactive) | > 100 µM (inactive) | > 100 µM (inactive) | > 100 µM (inactive) | > 100 µM (inactive)
O=c1oc2ccccc2cc1P(=O)(O)O | > 100 µM (inactive) | > 100 µM (inactive) | > 100 µM (inactive) | > 100 µM (inactive) | > 100 µM (inactive) | > 100 µM (inactive) | > 100 µM (inactive) | > 100 µM (inactive) | > 100 µM (inactive) | > 100 µM (inactive) | > 100 µM (inactive) | > 100 µM (inactive) | > 100 µM (inactive) | > 100 µM (inactive) | > 100 µM (inactive) | > 100 µM (inactive) | > 100 µM (inactive) | > 100 µM (inactive) | > 100 µM (inactive) | > 100 µM (inactive)
O=C(OC1OC2COC(=O)c3cc(O)c(O)c(O)c3-c3c(cc(O)c(O)c3O)C(=O)OC3C2OC(=O)[C@@]24CC(=O)[C@@](O)(OC25C(=O)O[C@H]2[C@@H](O)CO[C@@]25O)C2(O)Oc5c(O)c(O)cc(c5C24)C(=O)OC13)c1cc(O)c(O)c(O)c1 (stereo partly specified) | > 100 µM (inactive) | 36.9 µM (inactive) | 75.9 µM (inactive) | 49.3 µM (inactive) | 0.857 µM (active) | 31.5 µM (inactive) | > 100 µM (inactive) | 25.7 µM (inactive) | 19.5 µM (inactive) | 29.2 µM (inactive) | 50 µM (inactive) | 47.2 µM (inactive) | 42.3 µM (inactive) | 99.5 µM (inactive) | > 100 µM (inactive) | 56 µM (inactive) | 30.3 µM (inactive) | 74 µM (inactive) | 39.6 µM (inactive) | > 100 µM (inactive)
CC(C)(C)C1=NC(=P(c2ccccc2)(c2ccccc2)c2ccccc2)C(=O)O1 | > 100 µM (inactive) | > 100 µM (inactive) | > 100 µM (inactive) | > 100 µM (inactive) | > 100 µM (inactive) | > 100 µM (inactive) | 98.4 µM (inactive) | > 100 µM (inactive) | 20.2 µM (inactive) | > 100 µM (inactive) |  | > 100 µM (inactive) | > 100 µM (inactive) | > 100 µM (inactive) | > 100 µM (inactive) | > 100 µM (inactive) | > 100 µM (inactive) | > 100 µM (inactive) | > 100 µM (inactive) | > 100 µM (inactive)
CC#CCOC(=O)c1ccccc1OC(C)=O | > 100 µM (inactive) | > 100 µM (inactive) | > 100 µM (inactive) | > 100 µM (inactive) | > 100 µM (inactive) | > 100 µM (inactive) |  | > 100 µM (inactive) | > 100 µM (inactive) | > 100 µM (inactive) |  | > 100 µM (inactive) | > 100 µM (inactive) | > 100 µM (inactive) | > 100 µM (inactive) | > 100 µM (inactive) | > 100 µM (inactive) | > 100 µM (inactive) | > 100 µM (inactive) | 
[N-]=[N+]=Nc1cc(=O)n2c3c(cccc13)CCC2 | > 100 µM (inactive) | > 100 µM (inactive) | > 100 µM (inactive) | > 100 µM (inactive) | > 100 µM (inactive) | > 100 µM (inactive) | > 100 µM (inactive) | > 100 µM (inactive) | > 100 µM (inactive) | > 100 µM (inactive) | > 100 µM (inactive) |  | > 100 µM (inactive) | > 100 µM (inactive) | > 100 µM (inactive) | > 100 µM (inactive) | > 100 µM (inactive) | > 100 µM (inactive) | > 100 µM (inactive) | > 100 µM (inactive)
COc1cc2c(cc1[N+](=O)[O-])C(=O)C(Br)(Br)CCC2 | 2.12 µM (inactive) | 0.697 µM (active) | 0.955 µM (active) | 2.12 µM (inactive) | 3.05 µM (inactive) | 3.09 µM (inactive) | 2.13 µM (inactive) | 2.79 µM (inactive) | 0.771 µM (active) | 2.68 µM (inactive) | 3.51 µM (inactive) | 1.91 µM (inactive) | 5 µM (inactive) | 1.8 µM (inactive) | 1.93 µM (inactive) | 2.21 µM (inactive) | 0.743 µM (active) | 2.68 µM (inactive) | 2.23 µM (inactive) | 
Cc1ccc(Nc2cc(=O)[nH]c(=S)[nH]2)cc1 | > 100 µM (inactive) | > 100 µM (inactive) | > 100 µM (inactive) | > 100 µM (inactive) | > 100 µM (inactive) | > 100 µM (inactive) | > 100 µM (inactive) | > 100 µM (inactive) | > 100 µM (inactive) | > 100 µM (inactive) | > 100 µM (inactive) | > 100 µM (inactive) | > 100 µM (inactive) | > 100 µM (inactive) | > 100 µM (inactive) | > 100 µM (inactive) | > 100 µM (inactive) | > 100 µM (inactive) | > 100 µM (inactive) | 
O=C(O)c1ccccc1/C=N/N=C1NCCN1 | > 100 µM (inactive) | > 100 µM (inactive) | > 100 µM (inactive) | > 100 µM (inactive) | > 100 µM (inactive) | > 100 µM (inactive) | 88.1 µM (inactive) | > 100 µM (inactive) | 71.8 µM (inactive) | > 100 µM (inactive) | > 100 µM (inactive) | > 100 µM (inactive) | > 100 µM (inactive) | 39.7 µM (inactive) | > 100 µM (inactive) |  | 88.5 µM (inactive) | > 100 µM (inactive) | > 100 µM (inactive) | > 100 µM (inactive)
N#Cc1sc2c(c1OC(=O)c1ccco1)c(=O)n(-c1ccccc1)c(=S)n2-c1ccccc1 | 37.6 µM (inactive) | 19.2 µM (inactive) | > 10 µM (inactive) | 25.5 µM (inactive) | 26.5 µM (inactive) | 20.8 µM (inactive) | 22.2 µM (inactive) | 34.8 µM (inactive) | 27.4 µM (inactive) | 26.6 µM (inactive) | 24.8 µM (inactive) |  | 18.5 µM (inactive) | 22.4 µM (inactive) | 23.3 µM (inactive) | 27.8 µM (inactive) | > 10 µM (inactive) | 21.1 µM (inactive) | 25.3 µM (inactive) | 35 µM (inactive)
C[C@@](O)(/C=C/[C@H]1CC=CC(=O)O1)[C@@H](C[C@@H](O)\C=C/C=C\C=C\CO)OP(=O)(O)O [FOSTRIECIN SODIUM] | 9.59 µM (inactive) | 3.26 µM (inactive) | 5.14 µM (inactive) | 0.634 µM (active) | 22.3 µM (inactive) | 0.828 µM (active) | 4.74 µM (inactive) | 10.2 µM (inactive) | 17.3 µM (inactive) | 12.8 µM (inactive) |  | 6.31 µM (inactive) | 4.48 µM (inactive) | 1.1 µM (active) | 4.11 µM (inactive) | 9.33 µM (inactive) | 3.99 µM (inactive) | 48.1 µM (inactive) | 17.1 µM (inactive) | 7.28 µM (inactive)
CC1OC(OC2C(O)COC(OC3C(C)OC(OC4C(OC(=O)[C@]56CCC(C)(C)C[C@@H]5C5=CCC7[C@@]8(C)C[C@H](O)[C@H](OC9OC(CO)C(O)C(O)C9O)[C@@](C)(CO)[C@@H]8CC[C@@]7(C)[C@]5(C)CC6)OCC(O)C4O)C(O)C3O)C2O)C(O)C(O)C1O (stereo partly specified) | 24.1 µM (inactive) | 25.8 µM (inactive) |  | 22.8 µM (inactive) | 19.8 µM (inactive) | 20.5 µM (inactive) | 33.4 µM (inactive) | 28.2 µM (inactive) | 46.6 µM (inactive) | 21.6 µM (inactive) | 18.1 µM (inactive) | 17.1 µM (inactive) | 18.2 µM (inactive) | 33.2 µM (inactive) | 15.6 µM (inactive) | 21.2 µM (inactive) | 21 µM (inactive) | 22 µM (inactive) | 23.9 µM (inactive) | 15 µM (inactive)
COc1ccc2nc3ccc(OC)cc3c(SCC3CO3)c2c1 (stereo unspecified) | 15.8 µM (inactive) | 10.5 µM (inactive) |  | 14.4 µM (inactive) | 15 µM (inactive) | 15.8 µM (inactive) | 14.1 µM (inactive) | 17.2 µM (inactive) | 13 µM (inactive) | 17.1 µM (inactive) | 14.9 µM (inactive) | 24.9 µM (inactive) | 14.9 µM (inactive) | 22.7 µM (inactive) | 15.8 µM (inactive) | 13.8 µM (inactive) | 6.89 µM (inactive) | 16.8 µM (inactive) | 12.7 µM (inactive) | 17.7 µM (inactive)
